One data set deals with MCF-7. Briefly: MTT cytotoxicity assay, MCF-7. Format: cell-based. Particulars: Homo sapiens, MCF7, 72 h exposure, mean ± SD. On the procedure:
(§1) The newly synthesized chalcone compounds 7a–k were evaluated for their in vitro anticancer activity against three cancer cell lines—HCT-116, MCF-7 and HepG-2—according to the MTT assay method using doxorubicin as reference drug.
(§2) The in vitro anticancer activities of the selected chalcone compounds against three cancer cell lines: human colon carcinoma (HCT-116), human hepatocellular carcinoma (HEPG-2), and human breast adenocarcinoma (MCF-7) were evaluated as described with some modifications. Target tumor cells were grown to log phase in DMEM medium supplemented with 10% fetal bovine serum. After diluting to 1 × 10^5 cells mL^−1 with the medium, 100 μL of the obtained cell suspension was added to each well of 96-well culture plates. Subsequently, incubation was performed at 37 °C in 5% CO2 atmosphere for 48 h before the cytotoxicity assessment. Tested samples at preset concentrations were added to 6 wells with doxorubicin being employed as a positive reference. After 72 h exposure period, 25 μL of PBS containing 2.5 mg mL^−1 of MTT was added to each well. After 4 h, the medium was replaced by 150 μL DMSO to dissolve the purple formazan crystals produced. The absorbance at 570 nm of each well was measured with an ELISA plate reader. The data represented the mean of three independent experiments in triplicate and were expressed as means ± SD.
A general note: Tetrazolium dyes change colour on reduction, which living cells bring about.

The subject of data set [1] is HCT-116, MCF-7 and HepG-2. As to the kind of experiment: MTT cytotoxicity, statements across the three cell lines. Format: cell-based, human. The settings on record: for IC50: Homo sapiens, range over HCT-116, MCF-7, HepG-2, read-out: IC50 against the three cell lines (range given); for anticancer activity in words: three cell lines, MTT. As to the method:
as §1, §2

For the next data set, the target named is T1, tubulin (Homo sapiens, UniProt P07437+P68363).
T1 construct: The HCT-116 cell line was obtained from the American Type Culture Collection; endogenous in cells; host or cells: HCT-116
Briefly: Tubulin polymerization / ELISA for Tubulin Beta (TUBb) in HCT-116 cells. Format: cell-based. On the procedure:
Tubulin is the principal component of the eukaryotic cytoskeleton and participates in several crucial cellular processes, including cell replication.
Plate cells (cells density 1.2–1.8 × 10^3 cells/well) in a volume of […] complete growth medium and […] of the tested compound per well in a 96-well plate for 18–24 h before the enzyme assay for tubulin. […] Standards or samples are then added to the appropriate microtiter plate wells with a biotin-conjugated antibody specific to TUBb. Next, avidin conjugated to horseradish peroxidase (HRP) is added to each microplate well and incubated. […] The enzyme-substrate reaction is terminated by the addition of sulphuric acid solution and the color change is measured spectrophotometrically at a wavelength of 450 ± 10 nm. The concentration of TUBb in the samples is then determined by comparing the O.D. of the samples to the standard curve.
On the technique in general: An ELISA detects its analyte on a solid surface through an enzyme-linked reagent.

The test system of another data set is HepG-2. As to the kind of experiment: MTT cytotoxicity assay, HepG-2. Format: cell-based. Particulars: Homo sapiens, HepG2, 72 h exposure, mean ± SD. As to the method: as §1, §2
The target in another data set is T2, EGFR TK (Homo sapiens, UniProt P00533).
T2 construct: purchased Cell Signaling Technology
As to the kind of experiment: EGFR inhibition assay (HTScan EGFR kinase assay kit). The class given is biochemical. The settings on record: averages of three independent experiments; compounds tested at concentration of 10 μM; 400 μM ATP. On the procedure: As the designed compounds had good antiproliferative activity, in vitro EGFR inhibition capability was firstly evaluated for the target cytotoxic derivatives to see whether their cytotoxicity was mediated by kinase inhibition. […]. EGFR kinase activity was assessed using HTScan EGFR kinase assay kits (Cell Signaling Technology, Danvers, MA, USA). The experiments were performed according to the manufacturer’s instructions. […] Phosphorylated substrate was captured with strapavidin-coated 96-well plates. The level of phosphorylation was monitored by anti-phosphotyrosine and europium-labeled secondary antibodies (DELFIA, Perkin-Elmer, Akron, OH, USA). The enhancement solution was added at the end of the assay and enzyme activity was measured in a Victor II 1420 microplate reader (Wallac, Boston, MA, USA) at […].

For a further data set, the system named is HCT-116. Briefly: MTT cytotoxicity assay, HCT-116. The class given is cell-based. Particulars: Homo sapiens, 72 h exposure, mean ± SD. As to the method:
as §1, §2

[2] abbreviates: averages of two independent experiments, read-out: Tubulin Polymerization (IC50 µM).

Molecules are shown by their SMILES. Where “and” joins values, the source holds several entries; their conditions need not be identical. Identical values can stand only once. Like-named read-outs stand apart in the source and are kept apart here.

Broadly, the melting point is the temperature of the solid-liquid transition.

T2 sequence (P00533 25-1210): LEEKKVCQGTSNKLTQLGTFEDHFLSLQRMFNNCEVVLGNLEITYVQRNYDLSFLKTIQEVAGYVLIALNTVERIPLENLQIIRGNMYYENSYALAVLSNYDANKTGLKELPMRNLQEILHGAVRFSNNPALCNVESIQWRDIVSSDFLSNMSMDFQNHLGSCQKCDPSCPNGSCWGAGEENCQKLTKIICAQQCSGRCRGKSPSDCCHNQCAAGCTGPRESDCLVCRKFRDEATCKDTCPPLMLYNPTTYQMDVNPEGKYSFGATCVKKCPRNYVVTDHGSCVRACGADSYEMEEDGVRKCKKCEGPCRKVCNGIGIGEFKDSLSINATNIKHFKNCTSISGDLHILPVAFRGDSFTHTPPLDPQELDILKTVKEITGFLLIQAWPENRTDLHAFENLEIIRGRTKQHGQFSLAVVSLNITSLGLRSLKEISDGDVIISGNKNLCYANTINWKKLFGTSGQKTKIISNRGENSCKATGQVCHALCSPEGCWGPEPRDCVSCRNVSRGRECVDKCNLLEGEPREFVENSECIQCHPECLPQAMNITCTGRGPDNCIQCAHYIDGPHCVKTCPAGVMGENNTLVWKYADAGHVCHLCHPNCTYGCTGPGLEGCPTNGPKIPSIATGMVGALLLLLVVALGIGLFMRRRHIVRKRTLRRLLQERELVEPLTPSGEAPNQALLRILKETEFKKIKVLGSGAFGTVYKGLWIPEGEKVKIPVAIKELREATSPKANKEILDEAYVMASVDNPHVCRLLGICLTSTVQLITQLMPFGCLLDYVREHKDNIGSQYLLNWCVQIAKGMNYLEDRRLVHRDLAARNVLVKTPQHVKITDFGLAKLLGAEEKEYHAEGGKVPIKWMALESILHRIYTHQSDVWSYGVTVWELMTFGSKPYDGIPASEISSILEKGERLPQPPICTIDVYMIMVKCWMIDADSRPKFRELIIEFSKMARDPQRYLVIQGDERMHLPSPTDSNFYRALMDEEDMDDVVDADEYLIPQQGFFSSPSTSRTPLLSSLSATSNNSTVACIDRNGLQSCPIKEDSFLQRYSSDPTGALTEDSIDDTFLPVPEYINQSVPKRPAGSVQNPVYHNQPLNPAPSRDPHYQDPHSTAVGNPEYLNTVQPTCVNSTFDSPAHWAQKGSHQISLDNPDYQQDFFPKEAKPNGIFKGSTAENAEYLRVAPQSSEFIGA
T1 sequence (P07437 whole entry): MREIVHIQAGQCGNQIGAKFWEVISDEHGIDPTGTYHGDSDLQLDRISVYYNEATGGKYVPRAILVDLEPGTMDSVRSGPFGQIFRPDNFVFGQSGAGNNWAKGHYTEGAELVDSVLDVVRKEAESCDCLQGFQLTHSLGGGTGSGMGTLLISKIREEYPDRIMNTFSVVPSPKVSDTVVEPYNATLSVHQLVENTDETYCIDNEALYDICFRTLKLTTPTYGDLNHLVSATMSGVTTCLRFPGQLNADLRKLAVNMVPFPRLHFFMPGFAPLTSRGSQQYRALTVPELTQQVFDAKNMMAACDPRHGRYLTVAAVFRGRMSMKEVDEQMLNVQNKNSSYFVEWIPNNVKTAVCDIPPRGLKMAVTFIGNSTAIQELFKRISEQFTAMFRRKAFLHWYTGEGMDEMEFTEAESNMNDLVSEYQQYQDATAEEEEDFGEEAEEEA
T1 sequence (P68363 whole entry): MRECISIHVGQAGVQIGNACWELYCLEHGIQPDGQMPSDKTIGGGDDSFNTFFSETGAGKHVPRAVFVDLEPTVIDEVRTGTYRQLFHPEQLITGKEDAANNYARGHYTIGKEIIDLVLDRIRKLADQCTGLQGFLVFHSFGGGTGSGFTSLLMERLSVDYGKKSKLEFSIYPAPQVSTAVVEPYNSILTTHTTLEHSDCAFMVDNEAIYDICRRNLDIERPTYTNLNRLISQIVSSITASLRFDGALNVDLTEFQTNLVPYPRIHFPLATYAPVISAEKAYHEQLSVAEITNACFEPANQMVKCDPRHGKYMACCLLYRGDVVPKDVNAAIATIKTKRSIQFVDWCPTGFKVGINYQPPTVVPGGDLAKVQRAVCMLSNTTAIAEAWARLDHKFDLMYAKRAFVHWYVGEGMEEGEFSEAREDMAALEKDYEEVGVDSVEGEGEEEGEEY

For `CCc1nnc2c(Nc3ccc(C(=O)/C=C/c4ccccc4OC)cc3)nc3ccccc3n12` [Compound 7b, (E)-1-(4-((1-Ethyl-[1,2,4]triazolo[4,3-a]quinoxalin-4-yl)amino)phenyl)-3-(2-methoxyphenyl)prop-2-en-1-one], the melting point is 264 to 266 °C. Also, the IC50 in the data set with MCF-7 is 24.04 ± 0.12 µM. The IC50 in data set [1] is 1.65 to 34.3 µM. The IC50 on tubulin (setting [2]) was 18.1 ± 0.3 µM. This molecule registered an IC50 in the data set on HepG-2 of 30.72 ± 0.12 µM. At EGFR TK, the IC50 is 0.127 to 0.136 µM and 0.127 µM. This molecule also yielded an IC50 in the data set on HCT-116 of 25.6 ± 0.03 µM.

`CCc1nnc2c(Nc3ccc(C(=O)/C=C/c4ccc(O)cc4)cc3)nc3ccccc3n12` [Compound 7f, (E)-1-(4-((1-Ethyl-[1,2,4]triazolo[4,3-a]quinoxalin-4-yl)amino)phenyl)-3-(4-hydroxyphenyl)prop-2-en-1-one] gave a melting point of 253 to 255 °C. The IC50 in the data set on MCF-7 was more than 100 µM. For the same molecule, at tubulin (setting [2]), the IC50 is more than 100 µM. This molecule also returned an IC50 in the data set on HepG-2 of more than 100 µM. This molecule also yielded an IC50 at EGFR TK of more than 50 µM. The same molecule came in with an IC50 in the data set on HCT-116 of 18.1 ± 0.15 µM.

`CCc1nnc2c(Nc3ccc(C(=O)/C=C/c4ccc(Cl)cc4)cc3)nc3ccccc3n12` [Compound 7i, (E)-3-(4-Chlorophenyl)-1-(4-((1-ethyl-[1,2,4]triazolo[4,3-a]quinoxalin-4-yl)amino)phenyl)prop-2-en-1-one]: the melting point was in the range of 255 to 257 °C. The same molecule returned an IC50 in the data set on MCF-7 of more than 100 µM. The IC50 at tubulin (setting [2]) is more than 100 µM. In addition, in the data set on HepG-2, the IC50 was more than 100 µM. This molecule showed an IC50 against EGFR TK of more than 100 µM. The molecule further had an IC50 in the data set with HCT-116 of more than 100 µM.

`CCc1nnc2c(Nc3ccc(C(=O)/C=C/c4ccc(Cl)cc4Cl)cc3)nc3ccccc3n12` [Compound 7j, (E)-3-(2,4-Dichlorophenyl)-1-(4-((1-ethyl-[1,2,4]triazolo[4,3-a]quinoxalin-4-yl)amino)phenyl)prop-2-en-1-one]: the melting point lay within 250 to 252 °C. Further, the IC50 in the data set with MCF-7 is more than 100 µM. Moreover, the IC50 on tubulin (setting [2]) is more than 100 µM. In addition, the IC50 with HepG-2 is more than 100 µM. On EGFR TK, this molecule showed an IC50 of more than 100 µM. Further, in the data set on HCT-116, the IC50 is more than 100 µM.

The molecule `CCc1nnc2c(Nc3ccc(C(=O)/C=C/c4ccc([N+](=O)[O-])cc4)cc3)nc3ccccc3n12` [Compound 7h, (E)-1-(4-((1-Ethyl-[1,2,4]triazolo[4,3-a]quinoxalin-4-yl)amino)phenyl)-3-(4-nitrophenyl)prop-2-en-1-one] displayed a melting point of 260 to 262 °C. The IC50 in the data set on MCF-7 was more than 100 µM. At tubulin (setting [2]), the IC50 is more than 100 µM. Further, the IC50 in the data set with HepG-2 was more than 100 µM. Moreover, at EGFR TK, the IC50 is more than 100 µM. For the same molecule, in the data set on HCT-116, the IC50 was more than 100 µM.

For the molecule `CCc1nnc2c(Nc3ccc(C(=O)/C=C/c4ccc(OC)cc4)cc3)nc3ccccc3n12` [Compound 7e, (E)-1-(4-((1-Ethyl-[1,2,4]triazolo[4,3-a]quinoxalin-4-yl)amino)phenyl)-3-(4-methoxyphenyl)prop-2-en-1-one], the IC50 with MCF-7 is 8.23 ± 0.25 µM; in data set [1], 1.65 to 34.3 µM; at tubulin (setting [2]) it was 14.7 ± 0.11 µM; in the data set on HepG-2 it was 34.28 ± 0.14 µM; at EGFR TK, 0.083 ± 0.04 µM; in the data set with HCT-116, 9.57 ± 0.11 µM.

On to `CCc1nnc2c(Nc3ccc(C(=O)/C=C/c4c(Cl)cccc4Cl)cc3)nc3ccccc3n12` [Compound 7k, (E)-3-(2,6-Dichlorophenyl)-1-(4-((1-ethyl-[1,2,4]triazolo[4,3-a]quinoxalin-4-yl)amino)phenyl)prop-2-en-1-one], for which the melting point lay in the range of 250 to 252 °C. In the data set on MCF-7, this molecule yielded an IC50 of more than 100 µM. The IC50 at tubulin (setting [2]) was more than 100 µM. In the data set with HepG-2, this molecule gave an IC50 of more than 100 µM. The same molecule showed an IC50 at EGFR TK of more than 100 µM. Besides, the IC50 in the data set with HCT-116 came to 19.7 ± 0.25 µM.

`CCc1nnc2c(Nc3ccc(C(=O)/C=C/c4ccccc4)cc3)nc3ccccc3n12` [Compound 7a, (E)-1-(4-((1-Ethyl-[1,2,4]triazolo[4,3-a]quinoxalin-4-yl)amino)phenyl)-3-phenylprop-2-en-1-one]: the melting point was in the range of 260 to 262 °C. This molecule registered an IC50 in the data set with MCF-7 of 58.92 ± 0.32 µM. In addition, the “anticancer activity in words” value in data set [1] is “did not show significant activity”. The IC50 at tubulin (setting [2]) was found to be 77.1 ± 0.21 µM. For the same molecule, the IC50 in the data set with HepG-2 turned out to be 105.2 ± 0.5 µM. This molecule showed an IC50 against EGFR TK of 0.661 ± 0.00011 µM. In addition, in the data set on HCT-116, the IC50 was 57.49 ± 0.29 µM.

`CCc1nnc2c(Nc3ccc(C(=O)/C=C/c4cc(OC)c(OC)c(OC)c4)cc3)nc3ccccc3n12` [Compound 7g, (E)-1-(4-((1-Ethyl-[1,2,4]triazolo[4,3-a]quinoxalin-4-yl)amino)phenyl)-3-(3,4,5-trimethoxyphenyl)prop-2-en-1-one]: the IC50 in the data set with MCF-7 was 1.65 ± 0.13 µM; in data set [1], 1.65 to 34.3 µM; at tubulin (abstract text, read-out: antitubulin polymerization activity (abstract)), 8.4 µM; on tubulin (setting [2]) it was 8.84 ± 0.02 µM; in the data set on HepG-2, 8.58 ± 0.06 µM; against EGFR TK, 0.039 µM. For the same molecule, the IC50 with HCT-116 was found to be 3.61 ± 0.18 µM.

Molecule `CCc1nnc2c(Nc3ccc(C(=O)/C=C/c4ccc(C)cc4)cc3)nc3ccccc3n12` [Compound 7d, (E)-1-(4-((1-Ethyl-[1,2,4]triazolo[4,3-a]quinoxalin-4-yl)amino)phenyl)-3-(p-tolyl)prop-2-en-1-one] came in with a melting point of 247 to 249 °C. The molecule also returned an IC50 in the data set on MCF-7 of 93.4 ± 0.14 µM. In addition, the “anticancer activity in words” value in data set [1] was “low activity”. Also, the IC50 with HepG-2 is more than 100 µM. Also, the IC50 at EGFR TK was more than 100 µM. The same molecule came in with an IC50 with HCT-116 of more than 100 µM.

On to `CCc1nnc2c(Nc3ccc(C(C)=O)cc3)nc3ccccc3n12` [Compound 6, 1-(4-((1-ethyl-[1,2,4]triazolo[4,3-a]quinoxalin-4-yl)amino)phenyl)ethan-1-one], for which the melting point lay within 235 to 237 °C. For the same molecule, the IC50 in the data set with MCF-7 is 410 ± 0.25 µM. In the data set with HepG-2, the IC50 came to 446 ± 0.2 µM. The same molecule showed an IC50 in the data set on HCT-116 of 411 ± 0.21 µM.

The molecule `CCc1nnc2c(Nc3ccc(C(=O)/C=C/c4ccccc4O)cc3)nc3ccccc3n12` [Compound 7c, (E)-1-(4-((1-Ethyl-[1,2,4]triazolo[4,3-a]quinoxalin-4-yl)amino)phenyl)-3-(2-hydroxyphenyl)prop-2-en-1-one] returned a melting point of 261 to 263 °C. This molecule also displayed an IC50 in the data set with MCF-7 of 22.17 ± 0.11 µM. In addition, the IC50 at tubulin (setting [2]) was 43.4 ± 0.01 µM. The IC50 in the data set with HepG-2 was 17.32 ± 0.12 µM. Besides, the IC50 on EGFR TK was 0.127 to 0.136 µM and 0.136 µM. This molecule came in with an IC50 with HCT-116 of 19.8 ± 0.23 µM.

For `COc1cccc2c1C(=O)c1c(O)c3c(c(O)c1C2=O)C[C@@](O)(C(=O)CO)C[C@@H]3O[C@H]1C[C@H](N)[C@H](O)[C@H](C)O1` [Doxorubicin, reference compound], the IC50 in the data set with MCF-7 is 0.27 ± 0.08 µM; in the data set with HepG-2 it was 0.22 ± 0.01 µM; in the data set with HCT-116 it was 1.55 ± 0.03 µM.

For `CCc1nnc2c(Cl)nc3ccccc3n12` [Compound 5, 4-Chloro-1-ethyl-[1,2,4]triazolo[4,3-a]quinoxaline], the melting point was in the range of 158 to 160 °C. The molecule further displayed an IC50 with MCF-7 of 246 ± 0.13 µM. Also, in the data set with HepG-2, the IC50 was 322 ± 0.15 µM. In the data set with HCT-116, the IC50 is 236 ± 0.1 µM.
